{"source": "paper PMC3948749", "about": "“Engineering of Pyranose Dehydrogenase for Increased Oxygen Reactivity” (PLoS ONE, 2014)", "key": {"[1]": {"target": "T1, AmPDH (Agaricus meleagris pyranose dehydrogenase, pdh1) (Macropsalliota meleagris, UniProt Q3L245, H128Y)", "T1 construct": "monomeric glycoprotein about 90 kDa, 64 kDa deglycosylated", "T1 sequence (Q3L245 26-602 H128Y)": "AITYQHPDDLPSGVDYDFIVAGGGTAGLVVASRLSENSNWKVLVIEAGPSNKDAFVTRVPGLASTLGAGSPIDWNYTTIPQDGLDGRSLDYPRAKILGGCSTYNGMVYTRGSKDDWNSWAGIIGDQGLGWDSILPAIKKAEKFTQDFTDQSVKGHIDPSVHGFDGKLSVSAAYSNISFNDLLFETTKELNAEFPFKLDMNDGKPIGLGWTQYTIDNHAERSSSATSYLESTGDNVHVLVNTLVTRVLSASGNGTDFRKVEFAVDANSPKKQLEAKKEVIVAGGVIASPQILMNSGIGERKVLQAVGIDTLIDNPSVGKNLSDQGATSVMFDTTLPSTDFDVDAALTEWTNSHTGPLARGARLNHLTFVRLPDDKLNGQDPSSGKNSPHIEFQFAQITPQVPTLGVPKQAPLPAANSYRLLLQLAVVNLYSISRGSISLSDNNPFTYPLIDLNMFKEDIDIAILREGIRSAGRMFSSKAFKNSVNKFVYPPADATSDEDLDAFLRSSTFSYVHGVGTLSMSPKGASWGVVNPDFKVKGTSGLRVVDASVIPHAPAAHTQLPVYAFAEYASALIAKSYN", "assay": "steady-state kinetics", "assay_type": "biochemical", "conditions": "apparent; electron acceptor; 25 mM D-glucose as donor; pH 4; 30 °C; read-out: H103Y / K m /", "excerpt": "steady-state kinetics on AmPDH (Agaricus meleagris pyranose dehydrogenase, pdh1)"}, "[2]": {"target": "T1, AmPDH (Agaricus meleagris pyranose dehydrogenase, pdh1)", "assay": "UV-vis spectra before and after TCA/acetone precipitation", "assay_type": "binding", "conditions": "non-covalent, tightly bound; pH 7.5 spectra"}, "[3]": {"target": "T2, AmPDH (Agaricus meleagris pyranose dehydrogenase, pdh1) (Macropsalliota meleagris, UniProt Q3L245)", "T2 construct": "monomeric glycoprotein about 90 kDa, 64 kDa deglycosylated", "T2 sequence (Q3L245 26-602)": "as the sequence (Q3L245 26-602 H128Y) above, with Y103H counted along it", "assay": "UV-vis spectra before and after TCA/acetone precipitation", "assay_type": "binding", "conditions": "covalent (to H103); pH 7.5 spectra"}, "[4]": {"target": "T1, AmPDH (Agaricus meleagris pyranose dehydrogenase, pdh1)", "assay": "steady-state kinetics, ferrocenium assay", "assay_type": "biochemical", "conditions": "apparent; electron acceptor; 25 mM D-glucose as donor; pH 8.5; 30 °C; read-out: H103Y / K m /", "excerpt": "steady-state kinetics, ferrocenium assay on AmPDH (Agaricus meleagris pyranose dehydrogenase, pdh1)"}}}
{"smiles": "O=C1C=CC(=O)C=C1", "note": "[1,4-BQ, 1,4-benzoquinone]", "values": [{"measurement": "Km", "setting": "[1]", "result": "3640 ± 470", "unit": "µM"}]}
{"smiles": "Cc1cc2nc3c(=O)[nH]c(=O)nc-3n(C[C@H](O)[C@H](O)[C@H](O)COP(=O)(O)OP(=O)(O)OC[C@H]3O[C@@H](n4cnc5c(N)ncnc54)[C@H](O)[C@@H]3O)c2cc1C", "note": "[FAD]", "values": [{"measurement": "UV-vis spectra before and after TCA/acetone precipitation", "setting": "[2]", "result": "the variant H103Y carries a tightly but non-covalently bound FAD cofactor"}, {"measurement": "UV-vis spectra before and after TCA/acetone precipitation", "setting": "[3]", "result": "the wild-type protein did not release the covalently bound FAD"}]}
{"smiles": "F[P-](F)(F)(F)(F)F.[Fe+3].c1cc[cH-]c1.c1cc[cH-]c1", "note": "[Fc+PF6, ferrocenium hexafluorophosphate]", "values": [{"measurement": "Km", "setting": "[4]", "result": "100 ± 10", "unit": "µM"}]}
